Test results taken from paper PMC9631409 (ACS Omega, 2022).

Target: T1, FmtA^Δ80 (Staphylococcus aureus, UniProt O50608)
T1 sequence (O50608 81-397): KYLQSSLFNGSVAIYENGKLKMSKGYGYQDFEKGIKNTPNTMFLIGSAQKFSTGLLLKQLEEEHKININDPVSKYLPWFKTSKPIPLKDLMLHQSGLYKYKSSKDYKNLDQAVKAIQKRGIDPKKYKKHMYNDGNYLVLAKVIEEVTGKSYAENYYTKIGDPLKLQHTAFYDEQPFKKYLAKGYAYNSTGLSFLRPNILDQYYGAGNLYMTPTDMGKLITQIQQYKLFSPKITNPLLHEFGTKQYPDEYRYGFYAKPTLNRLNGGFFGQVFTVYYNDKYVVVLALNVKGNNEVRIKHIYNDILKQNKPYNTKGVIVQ
Test: isothermal titration calorimetry, one-site model
Type: binding

Kd | SMILES
11.1 µM | [H]/N=C(/N)N[C@H]1[C@H](O)[C@@H](O)[C@H](O[C@@H]2O[C@@H](C)[C@](O)(C=O)[C@H]2O[C@@H]2O[C@@H](CO)[C@H](O)[C@@H](O)[C@@H]2NC)[C@@H](N/C(N)=N\[H])[C@@H]1O [streptomycin]
8.56 µM | NC[C@@H]1O[C@H](O[C@H]2[C@@H](O)[C@H](O[C@@H]3[C@@H](O)[C@H](N)C[C@H](N)[C@H]3O[C@H]3O[C@H](CO)[C@@H](O)[C@H](O)[C@H]3N)O[C@@H]2CO)[C@H](N)[C@@H](O)[C@@H]1O [paromomycin]
1.7 µM | CO/N=C1\CN(c2nc3c(cc2F)c(=O)c(C(=O)O)cn3C2CC2)CC1CN (stereo not shown) [gemifloxacin]
25.8 µM | NC[C@H]1O[C@H](O[C@H]2[C@H](O)[C@@H](O[C@H]3O[C@H](CO)[C@@H](O)[C@H](N)[C@H]3O)[C@H](N)C[C@@H]2N)[C@H](N)C[C@@H]1O [tobramycin]
